This passage reports EC50 results from patent US20250312352A1, “GLP-1R MODULATING COMPOUNDS” (Gilead Sciences, Inc., priority 2021, published 2025).

The assay has as its target T1, GLP-1R (Homo sapiens, UniProt P43220).
T1 construct: host or cells: CHO cells
In words: GLP-1R activation cAMP assay (Assay 1 or Assay 2). It is filed as cell-based. The conditions noted are these: cAMP increase in CHO cells stably expressing GLP-1R; compounds run on one of the two cAMP assays. The procedure:
GLP-1R ACTIVATION—cAMP Assay 1
GLP-1R activation by compounds of the present disclosure was quantified by measuring cAMP increase in CHO cells stably expressing GLP-1R (MultiSpan product #C1267-1a). The cells were harvested and plated in growth medium (DMEM/F-12 (Corning product #10-090-CV) supplemented with 10% FBS (HyClone product #SH30071-03), penicillin/streptomycin (Corning product #30-002CI) and 10 μg/ml puromycin (Gibco product #A11138-03)) at 1,000 cells/well in a 384-well plate (Greiner product #781080). The cells were then incubated overnight at 37° C., 5% CO2. The next day, the medium was removed and the cells were washed with DPBS (Corning product #21-031-CM) before adding the assay medium (HBSS, Corning product #21-023-CV) with 20 mM Hepes (Gibco product #15630-080) and 0.1% BSA (Rockland Immunochemicals product #BSA-1000)). Following the medium change, the cells were incubated for 1 hour at 37° C., 5% CO2. The tested GLP-1 compound was added to the cells in a 10-point dose response followed by a 30-minute incubation at 37° C., 5% CO2. cAMP concentration increase was then detected using Cisbio's cAMP Gs Dynamic Kit (product #62AM4PEC) according to the manufacturer's protocol. The response was plotted against the log of the agonist concentration and fitted to a sigmoidal equation to determine the EC50.
GLP-1R ACTIVATION—cAMP Assay 2
GLP-1R activation by small molecule agonists was quantified by measuring cAMP increase in CHO cells stably expressing GLP-1R (MultiSpan product #C1267-1a). 50 nL of agonists were pre-spotted in a 10-point dose response onto 384-well plate (Corning product #CL3826) using the Labcyte Echo System.
For orientation: cAMP levels reflect the balance of adenylyl cyclase and phosphodiesterase activity.

T1 sequence (P43220 24-463): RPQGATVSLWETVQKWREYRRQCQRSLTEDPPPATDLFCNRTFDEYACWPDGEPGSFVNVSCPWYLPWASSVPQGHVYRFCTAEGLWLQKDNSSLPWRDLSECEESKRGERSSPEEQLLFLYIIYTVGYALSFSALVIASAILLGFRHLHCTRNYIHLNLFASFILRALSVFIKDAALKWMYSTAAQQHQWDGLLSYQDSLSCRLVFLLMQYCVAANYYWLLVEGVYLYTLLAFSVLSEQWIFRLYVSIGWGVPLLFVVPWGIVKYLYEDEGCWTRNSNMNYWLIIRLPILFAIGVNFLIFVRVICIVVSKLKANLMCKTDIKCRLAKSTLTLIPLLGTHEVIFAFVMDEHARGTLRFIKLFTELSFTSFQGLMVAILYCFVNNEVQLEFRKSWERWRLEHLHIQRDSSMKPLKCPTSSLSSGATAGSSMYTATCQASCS

One may read the EC50 as the concentration needed to bring the measured effect to its halfway point. Low values mean an effect from little substance, high ones a need for much substance. The compound `O=C(O)c1ccc2nc(Cc3cc(F)c(-c4cccc(OCc5ncc(Br)s5)n4)cc3F)n(C[C@@H]3CCO3)c2c1` [Example 22, (S)-2-(4-(6-((5-bromothiazol-2-yl)methoxy)pyridin-2-yl)-2,5-difluorobenzyl)-1-(oxetan-2-ylmethyl)-1H-benzo[d]imidazole-6-carboxylic acid] returned an EC50 of 0.17 nM.

`N#Cc1csc(COc2cccc(-c3cc(F)c(Cc4nc5ccc(C(=O)O)cc5n4C[C@@H]4CCO4)cc3F)n2)n1` [Example 23, (S)-2-(4-(6-((4-cyanothiazol-2-yl)methoxy)pyridin-2-yl)-2,5-difluorobenzyl)-1-(oxetan-2-ylmethyl)-1H-benzo[d]imidazole-6-carboxylic acid] registered an EC50 of 1.43 nM.

In the case of `O=C(O)c1ccc2nc(Cc3cc(F)c(-c4cccc(OCc5cc(C(F)(F)F)on5)n4)cc3F)n(C[C@@H]3CCO3)c2c1` [Example 24, (S)-2-(2,5-difluoro-4-(6-((5-(trifluoromethyl)isoxazol-3-yl)methoxy)pyridin-2-yl)benzyl)-1-(oxetan-2-ylmethyl)-1H-benzo[d]imidazole-6-carboxylic acid], the EC50 was 1.54 nM.

The compound `O=C(O)c1ccc2nc(Cc3cc(F)c(-c4cccc(OCc5nnc(C(F)(F)F)s5)n4)cc3F)n(C[C@@H]3CCO3)c2c1` [Example 25, (S)-2-(2,5-difluoro-4-(6-((5-(trifluoromethyl)-1,3,4-thiadiazol-2-yl)methoxy)pyridin-2-yl)benzyl)-1-(oxetan-2-ylmethyl)-1H-benzo[d]imidazole-6-carboxylic acid] registered an EC50 of 0.53 nM.

As for `O=C(O)c1ccc2nc(Cc3cc(F)c(-c4cccc(OCc5nc6cccnc6s5)n4)cc3F)n(C[C@@H]3CCO3)c2c1` [Example 26, (S)-2-(2,5-difluoro-4-(6-(thiazolo[5,4-b]pyridin-2-ylmethoxy)pyridin-2-yl)benzyl)-1-(oxetan-2-ylmethyl)-1H-benzo[d]imidazole-6-carboxylic acid], it took 0.23 nM to reach a half-maximal effect (EC50). This EC50 lies about 2.3-fold lower than the previous one.

In the case of `Cc1nc(COc2cccc(-c3cc(F)c(Cc4nc5ccc(C(=O)O)cc5n4C[C@@H]4CCO4)cc3F)n2)sc1Br` [Example 27, (S)-2-(4-(6-((5-bromo-4-methylthiazol-2-yl)methoxy)pyridin-2-yl)-2,5-difluorobenzyl)-1-(oxetan-2-ylmethyl)-1H-benzo[d]imidazole-6-carboxylic acid], the concentration for a half-maximal effect (EC50) is 0.08 nM.

`O=C(O)c1ccc2nc(Cc3cc(F)c(-c4cccc(OCc5cc6ccccn6n5)n4)cc3F)n(C[C@@H]3CCO3)c2c1` [Example 28, (S)-2-(2,5-difluoro-4-(6-(pyrazolo[1,5-a]pyridin-2-ylmethoxy)pyridin-2-yl)benzyl)-1-(oxetan-2-ylmethyl)-1H-benzo[d]imidazole-6-carboxylic acid] had an EC50 of 0.44 nM. Compared with the last compound, the EC50 is about 5.5-fold higher.

`O=C(O)c1ccc2nc(Cc3cc(F)c(-c4cccc(OCc5cn6cccnc6n5)n4)cc3F)n(C[C@@H]3CCO3)c2c1` [Example 29, (S)-2-(2,5-difluoro-4-(6-(imidazo[1,2-a]pyrimidin-2-ylmethoxy)pyridin-2-yl)benzyl)-1-(oxetan-2-ylmethyl)-1H-benzo[d]imidazole-6-carboxylic acid]: the concentration giving a half-maximal response (EC50) turned out to be 13.7 nM.

For the compound `O=C(O)c1ccc2nc(Cc3cc(F)c(-c4cccc(OCc5cn6ccccc6n5)n4)cc3F)n(C[C@@H]3CCO3)c2c1` [Example 30, (S)-2-(2,5-difluoro-4-(6-(imidazo[1,2-a]pyridin-2-ylmethoxy)pyridin-2-yl)benzyl)-1-(oxetan-2-ylmethyl)-1H-benzo[d]imidazole-6-carboxylic acid], a half-maximal response (EC50) required 1.99 nM.

For the compound `N#Cc1ccc2nc(COc3cccc(-c4cc(F)c(Cc5nc6ccc(C(=O)O)cc6n5C[C@@H]5CCO5)cc4F)n3)cn2c1` [Example 31, (S)-2-(4-(6-((6-cyanoimidazo[1,2-a]pyridin-2-yl)methoxy)pyridin-2-yl)-2,5-difluorobenzyl)-1-(oxetan-2-ylmethyl)-1H-benzo[d]imidazole-6-carboxylic acid], it took 1.32 nM to reach a half-maximal effect (EC50).

`O=C(O)c1ccc2nc(Cc3cc(F)c(-c4cccc(OCc5cn6cc(Cl)ccc6n5)n4)cc3F)n(C[C@@H]3CCO3)c2c1` [Example 32, (S)-2-(4-(6-((6-chloroimidazo[1,2-a]pyridin-2-yl)methoxy)pyridin-2-yl)-2,5-difluorobenzyl)-1-(oxetan-2-ylmethyl)-1H-benzo[d]imidazole-6-carboxylic acid]: the EC50 came to 0.79 nM.

Take `O=C(O)c1ccc2nc(Cc3cc(F)c(-c4cccc(OCc5cn6ccncc6n5)n4)cc3F)n(C[C@@H]3CCO3)c2c1` [Example 33, (S)-2-(2,5-difluoro-4-(6-(imidazo[1,2-a]pyrazin-2-ylmethoxy)pyridin-2-yl)benzyl)-1-(oxetan-2-ylmethyl)-1H-benzo[d]imidazole-6-carboxylic acid]: the EC50 was determined as 1.75 nM. Against the preceding compound, the EC50 is about 2.2-fold higher.

`O=C(O)c1ccc2nc(Cc3cc(F)c(-c4cccc(OCc5nc6ccccc6s5)n4)cc3F)n(C[C@@H]3CCO3)c2c1` [Example 34, (S)-2-(4-(6-(benzo[d]thiazol-2-ylmethoxy)pyridin-2-yl)-2,5-difluorobenzyl)-1-(oxetan-2-ylmethyl)-1H-benzo[d]imidazole-6-carboxylic acid] returned an EC50 of 0.2 nM. This EC50 lies about 8.8-fold lower than the previous one.

Regarding `O=C(O)c1ccc2nc(Cc3cc(F)c(-c4cccc(OCc5nc6cc(Cl)ccc6s5)n4)cc3F)n(C[C@@H]3CCO3)c2c1` [Example 35, (S)-2-(4-(6-((5-chlorobenzo[d]thiazol-2-yl)methoxy)pyridin-2-yl)-2,5-difluorobenzyl)-1-(oxetan-2-ylmethyl)-1H-benzo[d]imidazole-6-carboxylic acid], the concentration giving a half-maximal response (EC50) was determined as 0.22 nM.

In turn, `Cn1nccc1COc1cccc(-c2cc(F)c(Cc3nc4ccc(C(=O)O)cc4n3C[C@@H]3CCO3)cc2F)n1` [Example 36, (S)-2-(2,5-difluoro-4-(6-((1-methyl-1H-pyrazol-5-yl)methoxy)pyridin-2-yl)benzyl)-1-(oxetan-2-ylmethyl)-1H-benzo[d]imidazole-6-carboxylic acid] displayed an EC50 of 5.28 nM.

Compound `Cn1nc(COc2cccc(-c3cc(F)c(Cc4nc5ccc(C(=O)O)cc5n4C[C@@H]4CCO4)cc3F)n2)cc1CC#N` [Example 37, (S)-2-(4-(6-((5-(cyanomethyl)-1-methyl-1H-pyrazol-3-yl)methoxy)pyridin-2-yl)-2,5-difluorobenzyl)-1-(oxetan-2-ylmethyl)-1H-benzo[d]imidazole-6-carboxylic acid] returned an EC50 of 8.46 nM.

Turning to `Cn1nc(COc2cccc(-c3cc(F)c(Cc4nc5ccc(C(=O)O)cc5n4C[C@@H]4CCO4)cc3F)n2)cc1Cl` [Example 38, (S)-2-(4-(6-((5-chloro-1-methyl-1H-pyrazol-3-yl)methoxy)pyridin-2-yl)-2,5-difluorobenzyl)-1-(oxetan-2-ylmethyl)-1H-benzo[d]imidazole-6-carboxylic acid], it took 0.6 nM to reach a half-maximal effect (EC50).

The compound `Cn1nc(COc2cccc(-c3cc(F)c(Cc4nc5ccc(C(=O)O)cc5n4C[C@@H]4CCO4)cc3F)n2)cc1C1CC1` [Example 39, (S)-2-(4-(6-((5-cyclopropyl-1-methyl-1H-pyrazol-3-yl)methoxy)pyridin-2-yl)-2,5-difluorobenzyl)-1-(oxetan-2-ylmethyl)-1H-benzo[d]imidazole-6-carboxylic acid] displayed a concentration for a half-maximal effect (EC50) of 0.86 nM.

As for `Cn1nc(COc2cccc(-c3cc(F)c(Cc4nc5ccc(C(=O)O)cc5n4C[C@@H]4CCO4)cc3F)n2)cc1C(F)F` [Example 40, (S)-2-(4-(6-((5-(difluoromethyl)-1-methyl-1H-pyrazol-3-yl)methoxy)pyridin-2-yl)-2,5-difluorobenzyl)-1-(oxetan-2-ylmethyl)-1H-benzo[d]imidazole-6-carboxylic acid], it took 0.83 nM to reach a half-maximal effect (EC50).

With `COc1cc(C(=O)NC2(C#N)CC2)ncc1COc1cccc(-c2cc(F)c(Cc3nc4ccc(C(=O)O)cc4n3C[C@@H]3CCO3)cc2F)n1` [Example 41, (S)-2-(4-(6-((6-((1-cyanocyclopropyl)carbamoyl)-4-methoxypyridin-3-yl)methoxy)pyridin-2-yl)-2,5-difluorobenzyl)-1-(oxetan-2-ylmethyl)-1H-benzo[d]imidazole-6-carboxylic acid], it took 0.17 nM to reach a half-maximal effect (EC50).

In turn, `COc1cc(C(=O)NC2(C#N)CC2)ncc1COc1cccc(-c2cc(F)c(Cc3nc4c(F)cc(C(=O)O)cc4n3C[C@@H]3CCO3)cc2F)n1` [Example 42, (S)-2-(4-(6-((6-((1-cyanocyclopropyl)carbamoyl)-4-methoxypyridin-3-yl)methoxy)pyridin-2-yl)-2,5-difluorobenzyl)-4-fluoro-1-(oxetan-2-ylmethyl)-1H-benzo[d]imidazole-6-carboxylic acid] registered a half-maximal effective concentration (EC50) of 0.07 nM. This EC50 lies about 2.4-fold lower than the previous one.

`CNC(=O)c1ccc(COc2cccc(-c3cc(F)c(Cc4nc5ccc(C(=O)O)cc5n4C[C@@H]4CCO4)cc3F)n2)cn1` [Example 43, (S)-2-(2,5-difluoro-4-(6-((6-(methylcarbamoyl)pyridin-3-yl)methoxy)pyridin-2-yl)benzyl)-1-(oxetan-2-ylmethyl)-1H-benzo[d]imidazole-6-carboxylic acid] returned an EC50 of 0.3 nM.
